According to patent US9133241B2, “Peptide compositions” (TARIX PHARMACEUTICALS LTD., priority 2013, dated 2015):

Tests used:
[1] = system: transient middle cerebral artery occlusion (tMCAO) rat model of stroke; test: Modified Neurological Rating Scale (mNRS), tMCAO rat model of stroke; type: in vivo; conditions: 50 μg/kg SC once per day, tMCAO rats
Experimental: (§1) For the purposes of this Example, Transient middle cerebral artery occlusion (tMCAO) procedure Day is defined as “Day 1” in this study. On the day of surgery anesthesia were induced with 4% isoflurane in a mixture of 70% N2O and 30% O2 and maintained with 1.5-2% isoflurane.
(§2) The tMCAO procedures were performed according to the method described R. Schmid-Elsaesser et al., A critical reevaluation of the intraluminal thread model of focal cerebral ischemia: evidence of inadvertent premature reperfusion and subarachnoid hemorrhage in rats by laser-doppler flowmetry, Stroke, 1998, 29(10): 2162-2170. Briefly, the right CCA (Common Carotid Artery) was exposed through a midline neck incision and carefully dissected free from surrounding nerves and fascia—from its bifurcation to the base of the skull. The occipital artery branches of the ECA (External Carotid Artery) were then isolated, and these branches were dissected and coagulated. The ECA was dissected further distally and coagulated along with the terminal lingual and maxillary artery branches, which was then divided. The ICA (Internal Carotid Artery) was isolated and carefully separated from the adjacent vagus nerve, and the pterygopalatine artery was ligated close to its origin with a 5-0 nylon suture (SMI, Belgium). […]

[2] = system: human dermal microvascual endothelial cells (HDMEC); test: BDNF production in HDMEC (BDNF Emax immunoassay of cell medium); type: cell-based; conditions: for lowest dose stimulating BDNF expression: serum-free medium, 24 hours stimulation
Experimental: (§3) Prior to stimulation, cells were washed twice with sterile PBS and then provided with the respective serum free cell medium. Cells were incubated in the serum-free medium for one hour and afterwards stimulated for 24 hours. For the dose response measurement the peptides were used in a range from 10^−14M to 10^−6M. For all other experiments, a 10^−7M concentration of the peptides was used, whereas isoproterenol and forskolin were used in a 10^−6M concentration. To maintain the concentration of the substances over a period of 24 hours they were added again into the medium after 12 hours. After stimulation, the concentration of BDNF was determined in the cell medium. The samples were either used directly or stored at −80° C.
(§4) For the determination of the concentration of BDNF the BDNF Emax® immunoassay system from Promega was used. At first, 96-well plates were coated with anti-BDNF overnight at 4° C. The next day, the plates were washed with TBST and incubated with blocking buffer for one hour at room temperature. Afterwards, the plate was washed again with TBST, and 100 μl of sample were applied per well. The plate was incubated on a shaker (˜400 rpm) for two hours at room temperature and later on washed five times with TBST. To each well 100 μl pAb anti-human BDNF were added, and the plate again incubated under continuous shaking for two hours at room temperature. Thereafter, the plate was washed five times with TBST, each well applied with 100 μl anti-IgY-HRP conjugate, and incubated at room temperature with shaking for one hour. Then, the plate was washed five times with TBST and incubated for 10 min at room temperature on a shaker with TMB One Solution. The reaction was stopped with 1 M hydrochloric acid and the absorbance was measured immediately at 450 nm. The BDNF concentration was determined from a standard curve.

[3] = system: transient middle cerebral artery occlusion (tMCAO) rat model of stroke; test: Forelimb placement test, tMCAO rat model of stroke; type: in vivo; conditions: 50 μg/kg SC once per day; for forelimb placement: first day of statistically significant improvement vs vehicle: tMCAO rats; for forelimb placement score improvement vs vehicle control / forelimb placement score improvement vs vehicle control, percent: by day 50
Experimental: as §1
(§5) The tMCAO procedures were performed according to the method described R. Schmid-Elsaesser et al., A critical reevaluation of the intraluminal thread model of focal cerebral ischemia: evidence of inadvertent premature reperfusion and subarachnoid hemorrhage in rats by laser-doppler flowmetry, Stroke, 1998, 29(10): 2162-2170. Briefly, the right CCA (Common Carotid Artery) was exposed through a midline neck incision and carefully dissected free from surrounding nerves and fascia—from its bifurcation to the base of the skull. The occipital artery branches of the ECA (External Carotid Artery) were then isolated, and these branches were dissected and coagulated. The ECA was dissected further distally and coagulated along with the terminal lingual and maxillary artery branches, which was then divided. The ICA (Internal Carotid Artery) was isolated and carefully separated from the adjacent vagus nerve, and the pterygopalatine artery was ligated close to its origin with a 5-0 nylon suture (SMI, Belgium). Next, a 4-0 silk suture was tied loosely around the mobilized ECA stump, and a 4 cm length of 4-0 monofilament nylon suture (the tip of the suture was blunted by using a flame, and the suture was coated with polylysine, prior to insertion) was inserted through the proximal ECA into the ICA and thence into the circle of Willis, effectively occluding the MCA. The surgical wound was closed and the animals were returned to their cages to recover from anesthesia. One hour and a half after occlusion rats were re-anesthetized, the monofilament was withdrawn to allow reperfusion, the surgical wound was closed and rats were returned to their cages.
(§6) Animals were subjected to a modified Modified Neurological Rating Scale (mNRS) at 24 hours post reperfusion. Only animals with an overall score of ≧10 were included in this study. Animals were allocated into the test groups, according to the mNRS results on day 2, in order to have similar distribution of rats performance between groups. Starting on day 2, 24 hours post-surgery, each animal was administered one of 50 μg/kg of either TXA301 (SEQ ID NO: 20) or TXA302 (SEQ ID NO: 18) or […]; via subcutaneous (SC) administration.
The limb placing tests were divided into both forelimb and hindlimb tests. For the forelimb-placing test, the examiner held the rat close to a tabletop and scored the rat's ability to place the forelimb on the tabletop in response to whisker, visual, tactile, or proprioceptive stimulation. Similarly, for the hindlimb placing test, the examiner assessed the rat's ability to place the hindlimb on the tabletop in response to tactile and proprioceptive stimulation. Separate sub-scores were obtained for each mode of sensory input and added to give total scores (for the forelimb placing test: 0=normal, 12=maximally impaired; for the hindlimb placing test: 0=normal; 6=maximally impaired). Scores were given in half-point increments as follows: whisker placing (0-2), visual placing-forward (0-2), -sideways (0-2); tactile placing-dorsal (0-2), -lateral (0-2); proprioceptive placing (0-2); for a total of 0-12.

[4] = system: human umbilical vein endothelial cells (HUVEC); test: BDNF production in HUVEC (BDNF Emax immunoassay of cell medium); type: cell-based; conditions: for lowest dose stimulating significant BDNF expression: serum-free medium, 24 hours stimulation
Experimental: as §3, §4

[5] = system: transient middle cerebral artery occlusion (tMCAO) rat model of stroke; test: Cerebral blood flow and vessel diameter (laser Doppler), tMCAO rat model of stroke; type: in vivo; conditions: day 50; 50 μg/kg SC
Experimental: as §1, §5, §6
Evaluation of blood flow in the cerebral cortex and vessel constriction was carried out using a Flow-R Laser Doppler system, in which intracranial blood flow and vessels diameter (constriction/dilation) was monitored. The Doppler procedure was carried out on Day 50 after the stroke and was performed while the animals were under isoflurane anesthesia.

[6] = system: transient middle cerebral artery occlusion (tMCAO) rat model of stroke; test: Body swing test, tMCAO rat model of stroke; type: in vivo; conditions: 50 μg/kg SC once per day, tMCAO rats
Experimental: as §1
as §2, with “coagulated.” for “coagulated. The ECA was dissected further distally and coagulated along with the terminal lingual and maxillary artery branches, which was then divided. The ICA (Internal Carotid Artery) was isolated and carefully separated from the adjacent vagus nerve, and the pterygopalatine artery was ligated close to its origin with a 5-0 nylon suture (SMI, Belgium).”
The rat was held approximately one inch from the base of its tail. […] A swing was recorded whenever the rat moved its head out of the vertical axis to either side. Before attempting another swing, the rat had to return to the vertical position for the next swing to be counted. Twenty (20) total swings were counted. […] Body swing scores are expressed as a percentage of […] over total swings.

[7] = system: transient middle cerebral artery occlusion (tMCAO) rat model of stroke; test: Stepping test, tMCAO rat model of stroke; type: in vivo; conditions: 50 μg/kg SC once per day, tMCAO rats
Experimental: as §1
as §2, with “coagulated.” for “coagulated. The ECA was dissected further distally and coagulated along with the terminal lingual and maxillary artery branches, which was then divided. The ICA (Internal Carotid Artery) was isolated and carefully separated from the adjacent vagus nerve, and the pterygopalatine artery was ligated close to its origin with a 5-0 nylon suture (SMI, Belgium).”
Animals were tested for forelimb akinesia in a stepping test. The animal was held with its hind limbs fixed with one hand and the forelimb not monitored with the other, while the unrestrained fore-paw touches a table. The number of adjusting steps were counted while the animal was moved sideways along the table surface (85 cm in approximately five seconds), in the forehand & backhand direction for both forelimbs.

HUVEC cells = test: cAMP production in HUVEC (cAMP enzyme immunoassay of cell lysate); type: cell-based, human; conditions: 15 minutes stimulation
Experimental: Prior to stimulation with Ala^1-Arg^2-Val^3-Ser^4-Ile^5-His^6-Cys^7 (SEQ ID NO: 18), HUVEC cells were washed twice with PBS and then incubated for 1 hour in serum-free medium. In this Example, in order to generate a dose response curve, the peptide concentration ranged from 1×10^−13-1×10^−6 M. After 15 minutes stimulation, the medium containing peptide was removed and the cells were lysed (0.1M HCl, 0.1% Triton X-100). The clear lysate was collected, and 25 μl were used for determining the protein concentration (Pierce BCA Protein Assay Kit, Thermo Scientific, Rockford, USA) and the remaining fraction stored at −80° C. for later analysis.
cAMP concentration in cell lysates was determined using cAMP Enzyme Immunoassay Kit, Direct from Sigma-Aldrich (St. Louis, Mo., USA). Briefly, wells of 96-well plate (Goat Anti-Rabbit IgG pre-coated) were neutralized with 50 μl of Neutralizing Reagent. Next, 100 μl of acetylated cyclic AMP standard or cell lysate was added, followed by 50 μl of blue cAMP-Alkaline Phosphatase Conjugate and 50 μl of yellow EIA Rabbit Anti-cAMP antibody. The plate was then incubated on a shaker (˜500 rpm) for two hours at room temperature. […] The enzymatic reaction was stopped by adding 50 μl of Stop Solution, and the absorbance at 405 nm was measured immediately. The cAMP concentration was determined from non-linear standard curve using GraphPad Prism 5.0 software. […]

Q: Which results are given for “TXA301: angiotensin (1-7) peptide coded TXA301 (SEQ ID NO: 20); sequence not printed in the text (DRVSIHC)”?
A: mNRS: first day of significant increase in performance vs vehicle [1]: 15 days; BDNF expression at doses 100,000 times higher than 1×10^−11 ([2]; compared with 1×10^−11 M): statistically similar levels of expression; lowest dose stimulating BDNF expression [2]: 0.01 nM; forelimb placement: first day of statistically significant improvement vs vehicle [3]: 22 days; forelimb placement score improvement vs vehicle control [3]: 4 points; forelimb placement score improvement vs vehicle control, percent [3]: ~44%; BDNF expression at doses 100,000 times higher than 1×10^−11 ([4]; compared with 1×10^−11 M): statistically similar levels of expression; lowest dose stimulating significant BDNF expression [4]: 0.01 nM; blood flow ratio vs vehicle [5]: statistically significant improvement; vessel diameter vs vehicle [5]: statistically significant improvement; body swing test: first day of statistically significant improvement vs vehicle [6]: 22 days; stepping test: first day of statistically significant effect vs vehicle [7]: 15 days

Q: How did the “dose of observed maximum cAMP” value (HUVEC cells) turn out when “Ala^1-Arg^2-Val^3-Ser^4-Ile^5-His^6-Cys^7 (ARVSIHC) [TXA302]” was run?
A: approximately 1×10^−9 M

Q: What about the “lowest dose giving significant increase in cAMP” value (HUVEC cells) of the same substance?
A: 10 pM

Q: What about the “mNRS: first day of significant increase in performance vs vehicle” value [1] of the same substance?
A: 15 days

Q: What about the “forelimb placement: first day of statistically significant improvement vs vehicle” value [3] of the same substance?
A: 15 days

Q: And the “forelimb placement score improvement vs vehicle control” value [3]?
A: more than 7 points

Q: What about the “forelimb placement score improvement vs vehicle control, percent” value [3] of the same substance?
A: ~78%

Q: And the “blood flow compared to vehicle controls and to rats receiving TXA301” value [5]?
A: markedly improved blood flow

Q: And the “blood flow ratio vs vehicle” value [5]?
A: statistically significant improvement

Q: And the “vessel diameter compared to vehicle controls and to rats receiving TXA301” value [5]?
A: increased vessel diameter

Q: And the “vessel diameter vs vehicle” value [5]?
A: statistically significant improvement

Q: And the “body swing test: first day of statistically significant improvement vs vehicle” value [6]?
A: 15 days

Q: And the “stepping test: first day of statistically significant effect vs vehicle” value [7]?
A: 15 days

Q: What does the source list for “Asp^1-Arg^2-Val^3-Tyr^4-Ile^5-His^6-Pro^7 (DRVYIHP) [Ang (1-7), naturally-occurring Ang-(1-7), reference compound]”?
A: lowest dose stimulating BDNF expression [2]: 10 nM; lowest dose stimulating significant BDNF expression [4]: 10 nM
